# Assay results: article PMC11628255, “Interference of metal ions on the bioluminescent signal of firefly, Renilla, and NanoLuc luciferases in high-throughput screening assays” (Frontiers in Chemistry, 2024)
# Target: T1, firefly luciferase enzyme (FLuc) (Photinus pyralis, UniProt P08659)
# T1 construct: commercial purified enzyme (Promega E1701)
# Experiment: bioluminescence read-out, 384-well plate
# Format: biochemical
# Details: 10 µM ATP with 10 µM D-luciferin, 5 mM MgSO4; ATP and Mg needed for signal
# T1 sequence (P08659 whole entry): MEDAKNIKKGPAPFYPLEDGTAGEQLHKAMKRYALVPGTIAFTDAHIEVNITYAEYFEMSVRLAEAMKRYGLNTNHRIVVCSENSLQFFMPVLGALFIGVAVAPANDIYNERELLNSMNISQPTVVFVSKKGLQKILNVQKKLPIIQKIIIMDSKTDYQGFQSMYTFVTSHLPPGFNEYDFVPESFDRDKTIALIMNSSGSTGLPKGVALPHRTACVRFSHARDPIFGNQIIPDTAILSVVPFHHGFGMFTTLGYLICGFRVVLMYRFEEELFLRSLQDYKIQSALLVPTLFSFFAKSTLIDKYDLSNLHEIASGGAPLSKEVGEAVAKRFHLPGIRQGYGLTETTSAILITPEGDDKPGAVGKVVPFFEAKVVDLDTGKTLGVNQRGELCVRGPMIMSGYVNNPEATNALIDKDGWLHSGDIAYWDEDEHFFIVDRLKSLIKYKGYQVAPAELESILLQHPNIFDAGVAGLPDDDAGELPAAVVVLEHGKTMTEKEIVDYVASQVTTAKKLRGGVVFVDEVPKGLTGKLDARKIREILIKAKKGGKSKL
structure (smiles),measurement,value
Nc1ncnc2c1ncn2[C@@H]1O[C@H](COP(=O)(O)OP(=O)(O)OP(=O)(O)O)[C@@H](O)[C@H]1O [ATP],"bioluminescence read-out, 384-well plate",both ATP and Mg still need to be present in the FLuc reaction buffer
